Reference: ChEMBL document CHEMBL6182843, “Actinomycetes: Treasure trove for discovering novel antibiotic candidates” (2025)
In brackets after ≈: the same amount, converted by molar mass. One block for each compound: values may come before it.

How the values were obtained:
Type in all cases: functional
Acinetobacter baumannii = experiment: Antibacterial activity against Acinetobacter baumannii ATCC 19606 assessed as reduction in microbial growth by CLSI protocol based broth micro-dilution method
Staphylococcus aureus [1] = experiment: Antibacterial activity against methicillin-resistant Staphylococcus aureus MB5393 assessed as reduction in bacterial growth incubated for 18 to 20 hrs by broth micro-dilution method; settings: time 18-20 hrs
Streptococcus suis = experiment: Antibacterial activity against Streptococcus suis SC19 assessed as reduction in bacterial growth by CLSI protocol based MHB micro-silution method
[2] = test system: Erysipelothrix rhusiopathiae; experiment: Antibacterial activity against Erysipelothrix rhusiopathiae WH13013 assessed as reduction in bacterial growth by CLSI protocol based MHB micro-silution method
Staphylococcus aureus [3] = experiment: Antibacterial activity against Staphylococcus aureus ATCC 25923 assessed as reduction in bacterial growth by CLSI protocol based MHB micro-silution method
Bacillus subtilis [4] = experiment: Antibacterial activity Bacillus subtilis ATCC 49343 assessed as reduction in bacterial growth
Staphylococcus aureus [5] = experiment: Antibacterial activity Staphylococcus aureus ATCC 25923 assessed as reduction in bacterial growth
Escherichia coli [6] = experiment: Antibacterial activity Escherichia coli ATCC 8739 assessed as reduction in bacterial growth
Micrococcus luteus = experiment: Antibacterial activity against Micrococcus luteus ML01 assessed as reduction in bacterial growth incubated for 24 to 48 hrs by serial dilution method; settings: time 24-48 hrs
Staphylococcus aureus [7] = experiment: Antibacterial activity against methicillin-Staphylococcus aureus ATCC 29213 assessed as reduction in bacterial growth by broth micro-dilution method
Kocuria rhizophila = experiment: Antimicrobial activity against Kocuria rhizophila ATCC 9341 assessed as reduction in microbial growth
Enterococcus faecalis = experiment: Antibacterial activity against Enterococcus faecalis ATCC 29212 assessed as reduction in microbial growth by CLSI protocol based Mueller-Hinton broth micro-dilution method
Staphylococcus aureus [8] = experiment: Antimicrobial activity against Staphylococcus aureus ATCC 25913 assessed as reduction in bacterial growth by CLSI protocol based Mueller-Hinton broth micro-dilution method
Escherichia coli [9] = experiment: Antibacterial activity against Escherichia coli DH5a
Staphylococcus aureus [10] = experiment: Antibacterial activity against Staphylococcus aureus
Bacillus subtilis [11] = experiment: Antibacterial activity against Bacillus subtilis

SMILES: CC[C@@H](/C=C/[C@@H]1C/C=C(\C)[C@@H](O)[C@@H](C)[C@H](O[C@H]2O[C@H](CO)[C@H](O)[C@@H](O)[C@H]2O)C[C@@H](O)[C@@H](C)[C@H](O)C[C@@H]2C[C@H](O)[C@@H](O)[C@](O)(C[C@@H](O[C@H]3O[C@@H](C)[C@H](O)[C@@H](O[C@H]4C[C@H](N)[C@@H](O)[C@@H](C)O4)[C@@H]3O[C@H]3O[C@@H](C)[C@H](O)[C@@H](O)[C@@H]3O)[C@@H](C)/C=C/[C@@H](O)C[C@@H](O)[C@@H](C)/C=C/C(=O)O1)O2)[C@@H](O)[C@@H](C)[C@H](CC)O[C@H]1C[C@](C)(N)[C@H](O)[C@H](C)O1
- MIC (Staphylococcus aureus [1]): 2 µg/mL (≈ 1.26 µM)

SMILES: C=C(C)[C@@H]1CC[C@H](C)[C@H]2CC/C(C)=C/CC/C(C)=C/[C@H]21
- MIC (Bacillus subtilis [4]): 48.4 µg/mL (≈ 178 µM)
- MIC (Staphylococcus aureus [5]): 86.9 µg/mL (≈ 319 µM)
- MIC (Escherichia coli [6]): 133 µg/mL (≈ 488 µM)

SMILES: O=C1NC(=O)C(c2c[nH]c3cc(Cl)c(Cl)cc23)=C1c1c[nH]c2ccc(Cl)cc12
- MIC (Micrococcus luteus): 0.5 µg/mL (≈ 1.16 µM)
- MIC (Staphylococcus aureus [7]): 1 µg/mL (≈ 2.32 µM)

SMILES: CC(C)C[C@H](NC(=O)/C=N/O)[C@@H](O)[C@@H](C)C(=O)O
- MIC (Kocuria rhizophila): 50 µg/mL

SMILES: C[C@@H](O)[C@@H]1CC[C@H](c2ccc(O)c3c2C(=O)[C@@]24O[C@@]2([C@@H](C)O[C@@H]2CC(=O)O[C@@H]24)[C@H]3O)N1C
- MIC (Enterococcus faecalis): 40 µg/mL
- MIC (Staphylococcus aureus [8]): 40 µg/mL (≈ 89.8 µM)

SMILES: C=C(C)[C@@H]1CC[C@H](C)[C@H]2CC/C(C)=C/C[C@H](O)/C(C(=O)O)=C/[C@H]21
- MIC (Bacillus subtilis [4]): 1.1 µg/mL (≈ 3.45 µM)
- MIC (Staphylococcus aureus [5]): 49.7 µg/mL (≈ 156 µM)
- MIC (Escherichia coli [6]): 125 µg/mL (≈ 394 µM)

SMILES: CC[C@@H](/C=C/[C@@H]1C/C=C(\C)[C@@H](O)[C@@H](C)[C@H](O)C[C@@H](O)[C@@H](C)[C@H](O)C[C@@H]2C[C@H](O)[C@@H](O)[C@](O)(C[C@@H](O[C@H]3O[C@@H](C)[C@H](O)[C@@H](O[C@H]4C[C@H](N)[C@@H](O)[C@@H](C)O4)[C@@H]3O[C@H]3O[C@@H](C)[C@H](O)[C@@H](O)[C@@H]3O)[C@@H](C)/C=C/[C@@H](O)C[C@@H](O)[C@@H](C)/C=C/C(=O)O1)O2)[C@@H](O)[C@@H](C)[C@H](CC)O[C@H]1C[C@](C)(N)[C@H](O)[C@H](C)O1
- MIC (Staphylococcus aureus [1]): 1 µg/mL (≈ 0.702 µM)

SMILES: C[C@@H](O)[C@@H]1CC[C@H](c2ccc(O)c3c2C(=O)[C@]24O[C@]2([C@@H](C)O[C@@H]2CC(=O)O[C@@H]24)[C@H]3O)N1C
- MIC (Enterococcus faecalis): 40 µg/mL
- MIC (Staphylococcus aureus [8]): 40 µg/mL (≈ 89.8 µM)

Next, values leading:

- MIC (Acinetobacter baumannii): 128 µg/mL
SMILES: COc1cc(-c2ccccn2)nc(/C=N/O)c1S(C)(=O)=O

- MIC (Streptococcus suis): 12.5 µg/mL (≈ 39.8 µM)
- MIC [2]: 6.25 µg/mL (≈ 19.9 µM)
- MIC (Staphylococcus aureus [3]): 0.78 µg/mL (≈ 2.48 µM)
SMILES: C[C@@H](O)Cc1cc(O)cc2c1C(=O)c1c(O)ccc(O)c1C2=O

- MIC (Micrococcus luteus): 16 µg/mL (≈ 34.2 µM)
- MIC (Staphylococcus aureus [7]): 3 µg/mL (≈ 6.41 µM)
SMILES: COC(=O)c1[nH]c(C(=O)O)c(-c2c[nH]c3c(Cl)cccc23)c1-c1c[nH]c2c(Cl)cccc12

- MIC (Escherichia coli [9]): > 100 µg/mL
- MIC (Staphylococcus aureus [10]): 18 µg/mL (≈ 46.1 µM)
- MIC (Bacillus subtilis [11]): 10 µg/mL (≈ 25.6 µM)
SMILES: COc1ccc(OC)c([C@@H](O)[C@@H](C)C(=O)c2ccc(OC)c(C(=O)O)c2O)c1
